Several values for one entry are separate records, joined by “and”; a condition that tells them apart may be missing. Identical values can stand only once. Like-named read-outs stand apart in the source and are kept apart here.
How the values were obtained:
α3β4-nAChR = target: T1, α3β4-nAChR (Rattus norvegicus, UniProt P04757+P12392); experiment: Heteromeric nAChR binding assay, transfected HEK293 membranes, [3H]epibatidine
T1 construct: expressed in transfected cells

α2β2-nAChR = α2β2-nAChR (Rattus norvegicus, UniProt P12389+P12390); experiment: as above
Chain of α2β2-nAChR (P12389 28-511): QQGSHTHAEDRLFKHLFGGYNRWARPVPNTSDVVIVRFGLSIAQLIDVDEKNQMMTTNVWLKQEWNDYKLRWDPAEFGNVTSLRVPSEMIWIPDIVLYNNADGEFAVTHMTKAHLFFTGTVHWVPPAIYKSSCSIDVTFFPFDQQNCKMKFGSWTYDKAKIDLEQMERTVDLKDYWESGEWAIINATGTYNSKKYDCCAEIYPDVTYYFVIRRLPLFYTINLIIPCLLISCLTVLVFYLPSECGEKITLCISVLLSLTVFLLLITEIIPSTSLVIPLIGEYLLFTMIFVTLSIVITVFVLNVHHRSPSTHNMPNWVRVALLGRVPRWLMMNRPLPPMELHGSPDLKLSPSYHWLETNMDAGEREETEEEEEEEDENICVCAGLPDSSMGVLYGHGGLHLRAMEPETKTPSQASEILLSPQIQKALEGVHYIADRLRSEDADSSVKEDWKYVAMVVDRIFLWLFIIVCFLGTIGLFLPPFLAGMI
Chain of α2β2-nAChR (P12390 25-500): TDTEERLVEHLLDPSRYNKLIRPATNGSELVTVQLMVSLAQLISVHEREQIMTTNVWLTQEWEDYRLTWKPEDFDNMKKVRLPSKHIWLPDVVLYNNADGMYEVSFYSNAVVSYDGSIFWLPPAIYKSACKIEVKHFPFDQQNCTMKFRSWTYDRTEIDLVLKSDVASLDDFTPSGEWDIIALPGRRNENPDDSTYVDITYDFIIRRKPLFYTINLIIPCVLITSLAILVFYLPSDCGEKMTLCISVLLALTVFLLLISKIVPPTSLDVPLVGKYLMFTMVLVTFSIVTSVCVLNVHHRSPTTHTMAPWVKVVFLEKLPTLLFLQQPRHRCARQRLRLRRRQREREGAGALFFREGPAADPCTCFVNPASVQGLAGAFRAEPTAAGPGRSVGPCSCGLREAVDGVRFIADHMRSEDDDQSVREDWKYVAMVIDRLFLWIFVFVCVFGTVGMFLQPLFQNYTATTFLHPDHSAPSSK

α3β2-nAChR = α3β2-nAChR (Rattus norvegicus, UniProt P04757+P12390); experiment: as above
Chain of α3β2-nAChR (P04757 26-499): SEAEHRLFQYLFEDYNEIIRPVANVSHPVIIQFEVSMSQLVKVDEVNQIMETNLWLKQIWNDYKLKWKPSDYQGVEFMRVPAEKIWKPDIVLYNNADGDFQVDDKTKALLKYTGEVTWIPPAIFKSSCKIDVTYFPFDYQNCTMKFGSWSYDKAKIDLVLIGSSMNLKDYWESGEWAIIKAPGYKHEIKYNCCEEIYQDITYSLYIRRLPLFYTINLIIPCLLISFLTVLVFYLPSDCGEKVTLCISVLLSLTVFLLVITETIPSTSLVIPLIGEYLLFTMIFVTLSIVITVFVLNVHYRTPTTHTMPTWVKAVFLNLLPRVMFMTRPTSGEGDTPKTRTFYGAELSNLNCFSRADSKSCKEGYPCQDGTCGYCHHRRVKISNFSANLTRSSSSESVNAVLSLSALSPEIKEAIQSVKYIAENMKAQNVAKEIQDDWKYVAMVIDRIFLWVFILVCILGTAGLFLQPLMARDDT
Chain of α3β2-nAChR (P12390 25-500): as the sequence (P12390 25-500) above

α2β4-nAChR = target: T2, α2β4-nAChR (Rattus norvegicus, UniProt P12389+P12392); experiment: as above
T2 construct: expressed in transfected cells
T2 sequence (P12389 28-511): as the sequence (P12389 28-511) above
T2 sequence (P12392 21-495): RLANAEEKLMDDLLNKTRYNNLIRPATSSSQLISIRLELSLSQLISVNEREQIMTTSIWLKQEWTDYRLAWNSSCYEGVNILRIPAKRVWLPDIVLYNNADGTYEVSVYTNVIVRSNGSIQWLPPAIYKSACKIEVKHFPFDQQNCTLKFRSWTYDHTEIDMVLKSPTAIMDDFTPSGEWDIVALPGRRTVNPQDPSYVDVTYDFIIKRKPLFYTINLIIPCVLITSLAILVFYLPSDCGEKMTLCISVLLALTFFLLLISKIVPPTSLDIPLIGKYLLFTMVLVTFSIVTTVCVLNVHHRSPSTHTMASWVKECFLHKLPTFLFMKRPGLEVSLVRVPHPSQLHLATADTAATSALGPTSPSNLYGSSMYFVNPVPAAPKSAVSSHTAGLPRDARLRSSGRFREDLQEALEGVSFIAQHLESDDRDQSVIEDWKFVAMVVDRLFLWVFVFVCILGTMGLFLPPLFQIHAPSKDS

α4β4-nAChR = target: T3, α4β4-nAChR (Rattus norvegicus, UniProt P09483+P12392); experiment: as above
T3 construct: expressed in transfected cells
T3 sequence (P09483 31-630): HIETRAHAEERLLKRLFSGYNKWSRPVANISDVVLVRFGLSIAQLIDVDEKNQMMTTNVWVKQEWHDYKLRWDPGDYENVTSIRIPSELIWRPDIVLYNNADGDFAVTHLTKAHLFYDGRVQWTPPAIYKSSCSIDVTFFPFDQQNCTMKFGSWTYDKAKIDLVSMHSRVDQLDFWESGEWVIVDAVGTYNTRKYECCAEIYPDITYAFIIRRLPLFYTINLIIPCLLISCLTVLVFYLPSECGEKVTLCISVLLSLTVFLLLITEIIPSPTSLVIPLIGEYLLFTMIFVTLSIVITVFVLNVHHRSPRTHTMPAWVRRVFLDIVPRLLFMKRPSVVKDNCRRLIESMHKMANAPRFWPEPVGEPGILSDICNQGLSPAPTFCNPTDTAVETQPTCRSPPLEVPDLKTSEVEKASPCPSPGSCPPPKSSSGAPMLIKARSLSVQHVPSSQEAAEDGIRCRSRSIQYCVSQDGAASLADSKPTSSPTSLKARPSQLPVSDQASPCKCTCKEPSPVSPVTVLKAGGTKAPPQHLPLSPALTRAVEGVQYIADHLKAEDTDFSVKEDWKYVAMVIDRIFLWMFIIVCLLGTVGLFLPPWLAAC
T3 sequence (P12392 21-495): as the sequence (P12392 21-495) above

α4β2-nAChR = α4β2-nAChR (Rattus norvegicus, UniProt P09483+P12390); experiment: as above
Chain of α4β2-nAChR (P09483 31-630): as the sequence (P09483 31-630) above
Chain of α4β2-nAChR (P12390 25-500): as the sequence (P12390 25-500) above

α7-nAChR [1] = target: T4, α7-nAChR (Rattus norvegicus, UniProt Q05941); experiment: biochemical; format: binding
T4 sequence (Q05941 23-502): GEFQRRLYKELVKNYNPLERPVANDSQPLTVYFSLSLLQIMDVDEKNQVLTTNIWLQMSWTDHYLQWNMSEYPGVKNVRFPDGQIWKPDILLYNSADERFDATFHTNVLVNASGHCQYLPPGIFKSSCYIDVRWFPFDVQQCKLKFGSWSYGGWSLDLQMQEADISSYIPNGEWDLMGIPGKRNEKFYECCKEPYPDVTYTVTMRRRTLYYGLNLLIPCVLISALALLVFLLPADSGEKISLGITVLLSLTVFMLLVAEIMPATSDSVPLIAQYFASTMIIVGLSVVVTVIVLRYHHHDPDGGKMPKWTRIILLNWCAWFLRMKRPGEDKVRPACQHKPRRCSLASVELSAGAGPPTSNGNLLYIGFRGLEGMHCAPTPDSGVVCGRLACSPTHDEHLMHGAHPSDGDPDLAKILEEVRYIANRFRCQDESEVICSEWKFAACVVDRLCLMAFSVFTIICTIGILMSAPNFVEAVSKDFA

α7-nAChR [2] = target: T5, α7-nAChR (Mus musculus, UniProt P49582); conditions: in vivo; cited from earlier work
T5 sequence (P49582 23-502): as the sequence (Q05941 23-502) above, with A402T counted along it

α7-nAChR [3] = target: T5, α7-nAChR; conditions: in vivo
a7-nAChR = conditions: baboon
α7-nAChR [4] = target: T5, α7-nAChR; conditions: drugs 2 mg/kg sc, 10 min before radiotracer, 90 min
α7-nAChR [5] = target: T5, α7-nAChR; parameters: The brains were rapidly removed and dissected on ice; tissue Charles River Laboratories; host or cells: brain of live male CD-1 mice; species or system CD-1 mice; conditions: in vivo
α7-nAChR [6] = target: T6, α7-nAChR (Homo sapiens, UniProt P36544); conditions: read-out: Ki α7-nAChR (literature); cited from earlier work
T6 sequence (P36544 23-502): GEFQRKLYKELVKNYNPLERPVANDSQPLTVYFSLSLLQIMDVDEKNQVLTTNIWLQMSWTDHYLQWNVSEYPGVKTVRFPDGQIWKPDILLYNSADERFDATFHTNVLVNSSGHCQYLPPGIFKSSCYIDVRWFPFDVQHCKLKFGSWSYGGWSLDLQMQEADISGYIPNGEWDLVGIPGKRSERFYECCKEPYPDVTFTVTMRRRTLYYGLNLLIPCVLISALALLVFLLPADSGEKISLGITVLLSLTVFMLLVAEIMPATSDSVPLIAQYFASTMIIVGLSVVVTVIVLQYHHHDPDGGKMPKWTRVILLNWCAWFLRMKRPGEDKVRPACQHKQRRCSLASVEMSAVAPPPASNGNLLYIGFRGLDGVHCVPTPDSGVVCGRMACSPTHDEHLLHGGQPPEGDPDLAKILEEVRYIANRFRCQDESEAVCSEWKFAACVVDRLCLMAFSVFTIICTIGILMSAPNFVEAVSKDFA

α7-nAChR [7] = target: T6, α7-nAChR; conditions: read-out: α7-nAChR, Ki, cited from earlier work
α7-nAChR [8] = target: T5, α7-nAChR; experiment: Blockade of [18F]ASEM in CD1 mice with mouse-equivalent doses of clinical α7-nAChR drugs; format: in vivo; parameters: The brains were rapidly removed and dissected on ice; tissue Charles River Laboratories; host or cells: brain of live male CD-1 mice
Human 5-HT3 [9] = target: T7, Human 5-HT3 (Homo sapiens, UniProt P46098); conditions: read-out: KD of radiotracer, 5-HT3; cited from earlier work
T7 sequence (P46098 24-478): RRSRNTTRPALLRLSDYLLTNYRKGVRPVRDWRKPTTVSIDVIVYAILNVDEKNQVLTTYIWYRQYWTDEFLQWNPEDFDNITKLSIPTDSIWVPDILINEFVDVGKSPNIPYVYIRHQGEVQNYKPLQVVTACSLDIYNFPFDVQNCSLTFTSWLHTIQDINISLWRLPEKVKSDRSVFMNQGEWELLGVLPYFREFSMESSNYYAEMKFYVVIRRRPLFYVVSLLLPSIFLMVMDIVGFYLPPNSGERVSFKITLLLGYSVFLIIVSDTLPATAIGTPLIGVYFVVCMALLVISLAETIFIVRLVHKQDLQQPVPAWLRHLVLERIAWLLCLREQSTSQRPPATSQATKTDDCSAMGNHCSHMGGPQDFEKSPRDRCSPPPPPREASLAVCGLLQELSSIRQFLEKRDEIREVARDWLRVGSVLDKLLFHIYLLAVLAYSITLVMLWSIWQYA

α7-nAChR [10] = target: T5, α7-nAChR; conditions: in vivo; remark: listed apart in the source
α7-nAChR [11] = target: T5, α7-nAChR; parameters: The brains were rapidly removed and dissected on ice; tissue Charles River Laboratories; host or cells: brain of live male CD-1 mice; species or system CD-1 mice; conditions: in vivo; remark: listed apart in the source
α7-nAChR [12] = target: T4, α7-nAChR; conditions: read-out: KD of radiotracer, α7-nAChR; cited from earlier work
Human 5-HT3 [13] = target: T7, Human 5-HT3; experiment: 5-HT3(h) binding assay, recombinant HEK293 cells, [3H]GR65630
[14] = previously published values, varied assay conditions
[15] = stably transfected HEK293 cells, [3H]epibatidine (0.5 nM)

T1 sequence (P04757 26-499): as the sequence (P04757 26-499) above
T1 sequence (P12392 21-495): as the sequence (P12392 21-495) above

O=S1(=O)c2ccc(I)cc2-c2ccc(N3CCN4CCC3CC4)cc21 [Compound 15, 7-(1,4-Diazabicyclo[3.2.2]nonan-4-yl)-2-iododibenzo[b,d]-thiophene 5,5-Dioxide]
Ki (α3β4-nAChR): 9000 nM
Ki (α2β2-nAChR): 784 nM
Ki (α3β2-nAChR): 1000 nM
Ki (α2β4-nAChR): 6000 nM
Ki (α4β4-nAChR): 5000 nM
Ki (α4β2-nAChR): 477 nM
selectivity α7/α4β2 (α4β2-nAChR): 63
Ki (α7-nAChR [1]; read-out: Ki α7-nAChR): 6.46 nM and 8.77 nM

[18F]c1ccc(-c2nnc(N3CCN4CCC3CC4)o2)cc1
BPND in cortex, Mice (α7-nAChR [2]): 0.4

O=c1cccc2n1C[C@@H]1CNC[C@H]2C1 [cytisine]
blockade of [18F]7a accumulation in mouse brain (α7-nAChR [3]): insignificant reduction of radioactivity accumulation in all regions studied

O=[11C](Nc1ccc(Br)cc1)OC1CN2CCC1CC2 (centres unmarked)
BPND in cortex, Mice (α7-nAChR [2]): ~0.3

O=C(Oc1ccc(Br)cc1)N1CCN2CCC1CC2 [Compound 1, reference compound]
Mean occupancy of a7-nAChRs (a7-nAChR; dose of 0.5 mg/kg iv, individual VND values): 38%
Mean occupancy of a7-nAChRs (a7-nAChR; dose of 0.5 mg/kg iv, mean VND value of 2 doses): 32.9%
Mean occupancy of a7-nAChRs (a7-nAChR; dose of 5 mg/kg iv, individual VND values): 80.5%
Mean occupancy of a7-nAChRs (a7-nAChR; dose of 5 mg/kg iv, mean VND value of 2 doses): 94.1%
effect on accumulation of [18F]7a in mouse brain (α7-nAChR [4]): reduced accumulation of radioactivity
blockade of [18F]7a accumulation in mouse brain (α7-nAChR [5]): dose dependent blockade in all regions studied
Ki (α7-nAChR [6]): 22 nM

[11CH3]N1CC2CN(c3ccc4c(c3)C(=O)C3C=CC=CC3O4)CC2C1 (centres unmarked)
Ki (α7-nAChR [7]; [14]): 11 nM

O=S1(=O)c2ccccc2-c2c(N3CCN4CCC3CC4)ccc(F)c21 [Compound 7e, 1-(1,4-Diazabicyclo[3.2.2]nonan-4-yl)-4-fluorodibenzo[b,d]-thiophene 5,5-Dioxide]
Ki (α3β4-nAChR; [15]): 261 nM
Ki (α3β2-nAChR; [15]): 2000 nM
Ki (α2β4-nAChR; [15]): 562 nM
Ki (α4β4-nAChR; [15]): 251 nM
selectivity α7/α4β2 (α4β2-nAChR): 210
Ki (α4β2-nAChR; [15]): 4000 nM
Ki (α7-nAChR [1]; read-out: Ki α7-nAChR): 17.8 nM and 20.3 nM

[125I]c1occc1-c1cnc2c(c1)CC1(CN3CCC1CC3)O2 (centres unmarked)
BPND in cortex, Mice (α7-nAChR [2]): 0.6
Ki (α7-nAChR [7]): 0.26 nM

O=S1(=O)c2cc(N3CCN4CCC3CC4)ccc2-c2cccc(I)c21 [Compound 14, 3-(1,4-Diazabicyclo[3.2.2]nonan-4-yl)-6-iododibenzo[b,d]-thiophene 5,5-Dioxide]
Ki (α7-nAChR [1]; read-out: Ki α7-nAChR): 0.93 nM

[11CH3]n1cccc1-c1nnc(N2CCN3CCC2CC3)o1
Ki (α7-nAChR [7]): 2.2 nM

O=[N+]([O-])c1cccc2c1S(=O)(=O)c1cc(N3CCN4CCC3CC4)ccc1-2 [Compound 10, 3-(1,4-Diazabicyclo[3.2.2]nonan-4-yl)-6-nitrodibenzo[b,d]-thiophene 5,5-Dioxide]
Ki (α7-nAChR [1]; Ki α7-nAChR): 0.35 nM
Ki (α7-nAChR [1]; read-out: Ki α7-nAChR): 0.34 nM

COc1ccc(/C=C2\CCCN=C2c2cccnc2)c(OC)c1 [DMXB-A, Dimethoxybenzylidene anabaseine]
blockade of [18F]ASEM binding (α7-nAChR [8]; 3 mg/kg, cortex): 40%
blockade of [18F]ASEM binding (α7-nAChR [8]; 3 mg/kg, hippocampus): 28%
blockade of [18F]ASEM binding (α7-nAChR [8]; 10 mg/kg, hippocampus, cortex, subcolliculus): 50-70%
blockade of [18F]ASEM binding (α7-nAChR [8]; 25 mg/kg, hippocampus, cortex, superior and inferior colliculus): 50-60%
blockade of [18F]ASEM binding (α7-nAChR [8]; 0.1, 0.3, and 1 mg/kg): did not show significant blockade

O=S1(=O)c2ccccc2-c2ccc(N3CCN4CCC3CC4)cc21 [Compound 5, 3-(1,4-diazabicyclo[3.2.2]nonan-4-yl)dibenzo[b,d]thiophene 5,5-dioxide, reference compound]
blockade of [18F]7c accumulation in mouse brain (α7-nAChR [5]): dose dependent blockade
Ki (α7-nAChR [6]): 0.023 nM
Ki (α7-nAChR [1]; read-out: Ki α7-nAChR (reference compounds)): 0.3 nM and 0.5 nM

[11CH3]N1CC2CN(c3ccc(-c4ccccc4)nn3)CC2C1 (centres unmarked)
BPND in cortex, Mice (α7-nAChR [2]): 0.2-0.5
Ki (α7-nAChR [7]): 10.8 nM

Cc1[nH]cnc1CCC(=O)c1cn(C)c2ccccc12 [[^3H]GR65630]
Kd (Human 5-HT3 [9]): 0.5 nM

[18F]c1ccccc1-c1cnc2c(c1)CC1(CN3CCC1CC3)O2 (centres unmarked)
BPND in cortex, Mice (α7-nAChR [2]): 0.8
Ki (α7-nAChR [7]): 0.2 nM

[18F]CCn1ccc2ccc(-c3nnc(N4CCN5CCC4CC5)o3)cc21
Ki (α7-nAChR [7]): 2.5 nM

O=S1(=O)c2ccc([18F])cc2-c2ccc(N3CCN4CCC3CC4)cc21 [[^18F]7c, 4-(8-[^18F]fluorodibenzo[b,d]thiophen-3-yl)-1,4-diazabicyclo[3.2.2]nonane 5,5-dioxide]
baseline-to-blockade ratio (α7-nAChR [10]): 5
specific binding value (α7-nAChR [10]): 80%
Approximate BPND, Coll (α7-nAChR [11]): 2.0 ± 0.5
Approximate BPND, Ctx (α7-nAChR [11]): 2.0 ± 0.3
Approximate BPND, Hipp (α7-nAChR [11]): 3.1 ± 0.7
ratios of tissues to cerebellum (α7-nAChR [11]; iv): 4.5
Ki (α7-nAChR [1]; Ki α7-nAChR (text)): 1.3 nM

Cc1nccn1CC1CCc2c(c3ccccc3n2C)C1=O (centres unmarked) [ondansetron]
effect on accumulation of [18F]7a in mouse brain (α7-nAChR [4]): absence of blockade

O=S1(=O)c2cc(F)ccc2-c2ccc(N3CCN4CCC3CC4)cc21 [Compound 7b, 4-(7-Fluorodibenzo[b,d]thiophen-3-yl)-1,4-diazabicyclo-[3.2.2]nonane 5,5-Dioxide]
Ki (α7-nAChR [1]; read-out: Ki α7-nAChR): 1.02 nM and 1.37 nM

[11CH3]N1CC2CN(c3ccc(-c4ccc5[nH]ccc5c4)nc3)CC21 (centres unmarked) [5-(5-(6-[(11)C]methyl-3,6-diazabicyclo[3.2.0]heptan-3-yl)pyridin-2-yl)-1H-indole]
BPND in cortex, Mice (α7-nAChR [2]): 1.9

[^125I]α-bungarotoxin
Kd (α7-nAChR [12]): 0.7 nM

[11CH3]c1ccc(OC(=O)N2CCN3CCC2CC3)cc1
BPND in cortex, Mice (α7-nAChR [2]): ~0.6

CN1CCCC1c1cccnc1 (centres unmarked) [nicotine]
blockade of [18F]7a accumulation in mouse brain (α7-nAChR [3]): significant blockade in all regions except the nAChR-poor cerebellum

O=S1(=O)c2ccccc2-c2ccc(N3CCN4CCC3CC4)c(F)c21 [Compound 7d, 3-(1,4-Diazabicyclo[3.2.2]nonan-4-yl)-4-fluorodibenzo[b,d]-thiophene 5,5-Dioxide]
Ki (α3β4-nAChR): 3000 nM
Ki (α2β2-nAChR): 292 nM
Ki (α3β2-nAChR): 678 nM
Ki (α2β4-nAChR): 838 nM
Ki (α4β4-nAChR): 1000 nM
Ki (α4β2-nAChR): 141 nM
selectivity α7/α4β2 (α4β2-nAChR): 66
Ki (α7-nAChR [1]; read-out: Ki α7-nAChR): 1.83 nM and 2.45 nM

O=S1(=O)c2ccc(F)cc2-c2ccc(N3CCN4CCC3CC4)cc21 [Compound 7c, 7-(1,4-Diazabicyclo[3.2.2]nonan-4-yl)-2-fluorodibenzo[b,d]-thiophene 5,5-Dioxide]
Ki (α3β4-nAChR; [15]): 5000 nM
behavioral / locomotor activity changes (α7-nAChR [10]): Neither behavioral nor locomotor activity changes were observed
selectivity α7/5HT3 (Human 5-HT3 [13]): 378
Ki (Human 5-HT3 [13]; Human 5-HT3 recombinant/HEK293 cells, [3H]GR65630 (0.35 nM)): 505 nM
Ki (α2β2-nAChR; [15]): 1000 nM
Ki (α3β2-nAChR; [15]): 2000 nM
Ki (α2β4-nAChR; [15]): 8000 nM
Ki (α4β4-nAChR; [15]): 3000 nM
selectivity α7/α4β2 (α4β2-nAChR): 663
Ki (α4β2-nAChR; [15]): 885 nM
Ki (α7-nAChR [1]; Ki α7-nAChR): 1.35 nM
Ki (α7-nAChR [1]; Ki α7-nAChR (text)): 1.3 nM
Ki (α7-nAChR [1]; read-out: Ki α7-nAChR): 1.32 nM

O=C(Oc1ccc([76Br])cc1)N1CCN2CCC1CC2
Ki (α7-nAChR [7]; [14]): 24.9 nM

[11CH3]N1CC2CN(c3ccc(-c4ccc5[nH]ccc5c4)nn3)CC2C1 (centres unmarked)
BPND in cortex, Mice (α7-nAChR [2]): 0.5

O=[N+]([O-])c1ccc2c(c1)-c1ccc(N3CCN4CCC3CC4)cc1S2(=O)=O [Compound 11, 7-(1,4-Diazabicyclo[3.2.2]nonan-4-yl)-2-nitrodibenzo[b,d]-thiophene 5,5-Dioxide]
Ki (α7-nAChR [1]; read-out: Ki α7-nAChR): 3.41 nM and 6.21 nM
